Measurements as given in EP3070175A1, “TEST FOR DETERMINING SUSCEPTIBILITY OR RESISTANCE TO POLYMYXINS IN ENTEROBACTERIACEAE” (Université de Fribourg, priority 2015, dated 2016).

Tests used:
[1] = test system: S. marcescens; assay: MIC determination, broth microdilution in Cation-Adjusted Mueller-Hinton broth (CLSI); assay type: cell-based, Serratia marcescens; conditions: strain Smar
Procedure: (§1) Determination of MIC values were performed using the reference technique (broth microdilution in Cation-Adjusted Mueller-Hinton broth) according to the CLSI guidelines. Polymyxin B and colistin (Sigma-Aldrich, Saint-Louis) were tested over a range dilution from 0.12 to 128 µg/ml and 5.10^5 CFU/ml of bacteria in each well was used. Following the EUCAST breakpoints (http://www.eucast.org/), strains with a colistin MICs of ≤ 2 µg/ml were categorized as susceptible, although those with MICs of > 2 µg/ml were resistant.
(§2) All experiments were repeated in triplicate.

[2] = test system: E. coli; assay: as above; assay type: cell-based, Escherichia coli; conditions: for Colistin resistance: EUCAST breakpoints
Procedure: as §1, §2

[3] = test system: C. freundii; assay: Polymyxin test: colorimetric detection of growth (glucose metabolization, phenol red) in presence of colistin sulphate; assay type: cell-based; set-up: key: +, yellow; -, orange; conditions: colistin sulphate 3.75 mg/L final, visual colour change, up to 4 h at 37°C
Procedure: (§3) Each inoculum was prepared by mixing 1 öse (10 µl) of a fresh culture of the tested bacteria in 5 ml of sterile NaCl 0.85% (at a density of 3 Mac Farland, i.e. about 10^9 CFU/ml).
(§4) 250 ml of reactive medium was prepared by mixing the compounds hereafter: • a broth powder of a non selective growth medium for bacteria, the Cation-Adjusted Mueller-Hinton broth (MHB-CA) : 6.25 g • a colour indicator, the phenol red : 0.0125 g • sterile distilled water 225 ml • sterile D (+)-glucose (10 %) anhydrous (sterilization by filtration) : 25 ml
(§5) The pH of the final reactive medium was adjusted to 6.6 and 6.7 with HCl 1M.
(§6) Colistin or polymyxin B was added or not at the concentration of 5 mg/L in the reactive medium. Standard colistin sulphate and polymyxin B were from Sigma Aldrich (Saint-Louis, France). Those antibiotic molecule powders were kept at 4°C before their use, whereas polymyxin dilutions were kept at -20°C.
(§7) For each strain, two wells of a plastic sterile plate with 96 shaped wells were inoculated in parallel with and without polymyxin (colistin sulphate or polymyxin B) in order to compare their colour change.
(§8) Plastic sterile plates were from Sarstedt (Nümbrecht, Germany). The tray may be prepared as follows : • 1. 150 µl of reactive medium colistin free (obtained in 1.) in the first line • 2. 150 µl of reactive medium with 5 mg/l of colistin sulphate in the second line (final concentration = 3.75 mg/l) • 3. 50 µl of NaCl alone in the first column (one well colistin-free and one well with colistin sulphate) (medium control) • 4. 50 µl of the bacterial suspension (obtained in 2.) for the control strains and for every strain in the other column (one well colistin-free and one well with colistin)
(§9) After mixing of the bacterial suspension to the reactive medium by pipetting up and down, the final concentration of bacteria was 2.5.10^8 CFU/ml in each well and the final selective concentration of colistin or polymyxin B in the well with polymyxin was 3.75 mg/L.
(§10) The results of the tests were recorded at 10 min (checking for no spontaneous colour change in the well) and then every hour for a maximum of 4 hours by visual inspection. No colour change of the well with colistin sulphate or polymyxin B indicated susceptibility to colistin sulphate or polymyxin B and negativity of those tests. On the contrary, a colour change (orange to yellow) indicates the positivity of the test meaning growth capability (related to glucose metabolism) in presence of colistin sulphate or polymyxin B, i.e. resistance to colistin sulphate or polymyxin B.
as §2

[4] = test system: E. aerogenes; assay: as above; assay type: cell-based; set-up: key: +, yellow; -, orange; conditions: strain 6 FR; colistin sulphate 3.75 mg/L final; visual colour change, up to 4 h at 37°C
Procedure: as §3, §4, §5, §6, §7, §8, §9, §10, §2

[5] = test system: E. cloacae; assay: as above; assay type: cell-based; set-up: key: +, yellow; -, orange; conditions: colistin sulphate 3.75 mg/L final, visual colour change, up to 4 h at 37°C
Procedure: as §3, §4, §5, §6, §7, §8, §9, §10, §2

[6] = test system: H. alvei; assay: as above; assay type: cell-based; set-up: key: +, yellow; -, orange; conditions: strain ER; colistin sulphate 3.75 mg/L final; visual colour change, up to 4 h at 37°C
Procedure: as §3, §4, §5, §6, §7, §8, §9, §10, §2

[7] = test system: K. oxytoca; assay: as above; assay type: cell-based; set-up: key: +, yellow; -, orange; conditions: strain C24; colistin sulphate 3.75 mg/L final; visual colour change, up to 4 h at 37°C
Procedure: as §3, §4, §5, §6, §7, §8, §9, §10, §2

[8] = test system: M. morganii; assay: as above; assay type: cell-based; set-up: key: +, yellow; -, orange; conditions: strain Mmor; colistin sulphate 3.75 mg/L final; visual colour change, up to 4 h at 37°C
Procedure: as §3, §4, §5, §6, §7, §8, §9, §10, §2

[9] = test system: P. stuartii; assay: as above; assay type: cell-based; set-up: key: +, yellow; -, orange; conditions: strain Pstu; colistin sulphate 3.75 mg/L final; visual colour change, up to 4 h at 37°C
Procedure: as §3, §4, §5, §6, §7, §8, §9, §10, §2

[10] = test system: K. pneumoniae; assay: as above; assay type: cell-based, Klebsiella pneumoniae; set-up: key: +, yellow; -, orange; conditions: colistin sulphate 3.75 mg/L final, visual colour change, up to 4 h at 37°C
Procedure: as §3, §4, §5, §6, §7, §8, §9, §10, §2

colistin sulphate
Colistin resistance ([1]; EUCAST breakpoints): + (those with MICs of > 2 µg/ml were resistant) | Colistin MIC ([1]; Natural resistance): >128 µg/mL | Colistin MIC ([2]; strain 3 FR): 0.12 µg/mL | Colistin resistance ([2]; strain 3 FR): - (strains with a colistin MICs of ≤ 2 µg/ml were categorized as susceptible) | Colistin MIC ([2]; strain 5 FR): 0.25 µg/mL | Colistin resistance ([2]; strain 5 FR): - (strains with a colistin MICs of ≤ 2 µg/ml were categorized as susceptible) | Colistin MIC ([2]; strain 10 FR): 0.25 µg/mL | Colistin resistance ([2]; strain 10 FR): - (strains with a colistin MICs of ≤ 2 µg/ml were categorized as susceptible) | Colistin resistance ([2]; strain 27563): + (those with MICs of > 2 µg/ml were resistant) | Colistin MIC ([2]; strain 27563, resistance mechanism Unknown): 16 µg/mL | Colistin resistance ([2]; strain 27837): + (those with MICs of > 2 µg/ml were resistant) | Colistin MIC ([2]; strain 27837, resistance mechanism Unknown): 16 µg/mL | Colistin resistance ([2]; strain 27850): + (those with MICs of > 2 µg/ml were resistant) | Colistin MIC ([2]; strain 27850, resistance mechanism Unknown): 16 µg/mL | Colistin resistance ([2]; strain 27852): + (those with MICs of > 2 µg/ml were resistant) | Colistin MIC ([2]; strain 27852, resistance mechanism Unknown): 8 µg/mL | Colistin resistance ([2]; strain 30742): + (those with MICs of > 2 µg/ml were resistant) | Colistin MIC ([2]; strain 30742, resistance mechanism Unknown): 8 µg/mL | Colistin MIC ([2]; strain ATCC 25922): 0.25 µg/mL | Colistin resistance ([2]; strain ATCC 25922): - (strains with a colistin MICs of ≤ 2 µg/ml were categorized as susceptible) | Colistin MIC ([2]; strain C140): 0.12 µg/mL | Colistin resistance ([2]; strain C140): - (strains with a colistin MICs of ≤ 2 µg/ml were categorized as susceptible) | Colistin MIC ([2]; strain Top10): 0.12 µg/mL | Colistin resistance ([2]; strain Top10): - (strains with a colistin MICs of ≤ 2 µg/ml were categorized as susceptible) | Results of the method of the invention ([3]; strain 8 FR): - | Results of the method of the invention ([3]; strain C136): - | Results of the method of the invention [4]: - | Results of the method of the invention ([5]; strain 7 FR): - | Results of the method of the invention ([5]; strain C28): + | Results of the method of the invention ([5]; strain C129): - | Results of the method of the invention ([5]; strain C144): - | Results of the method of the invention ([5]; strain HM): + | Results of the method of the invention [6]: + | Results of the method of the invention [7]: + | Results of the method of the invention [8]: + | Results of the method of the invention [9]: + | Results of the method of the invention ([10]; strain 1 FR): - | Results of the method of the invention ([10]; strain 2 FR): - | Results of the method of the invention ([10]; strain 4 FR): - | Results of the method of the invention ([10]; strain 9 FR): - | Results of the method of the invention ([10]; strain 11 FR): + | Results of the method of the invention ([10]; strain 75b): + | Results of the method of the invention ([10]; strain AF1b): + | Results of the method of the invention ([10]; strain C23): + | Results of the method of the invention ([10]; strain C25): + | Results of the method of the invention ([10]; strain C26): + | Results of the method of the invention ([10]; strain C27): + | Results of the method of the invention ([10]; strain C112): - | Results of the method of the invention ([10]; strain C115): - | Results of the method of the invention ([10]; strain C130): - | Results of the method of the invention ([10]; strain C132): - | Results of the method of the invention ([10]; strain T1b): +
